Assay [1] relates to A549 cells. The assay is described as follows: Cytotoxicity assay (resazurin) in A549 cells. The class given is cell-based. Particulars: Homo sapiens, A549, 96 hr, read-out: Cell Viability IC50 A549. The procedure: (§1) Cells were allowed to grow at 37° C. for 24 hr in 5% CO2 environment (culture conditions) in a Nuaire incubator (humidified). Serially diluted test compounds (100 μL) within the desired testing concentration ranges were added to the culture plate were further incubated in culture conditions for 72 hr and 96 hr for A427 and A549 respectively. The experiment was terminated at the designated incubation time by replacing the medium with 100 μL of 1 mM of resazurin (R7017; Sigma) prepared in respective culture medium, and the plates were further incubated in culture conditions for 4-6 hr. Fluorescence was recorded using a multimodal plate reader (Biotek Synergy Neo) at an excitation wavelength of 535 nm and emission wavelength of 590 nm to obtain relative fluorescence units. Data analysis was done by subtracting the background fluorescence (only medium blank) value from each reading and then normalizing with the vehicle control (DMSO treated cells) to obtain percent survival/proliferation. Percent survival was then subtracted by 100 to get the percent inhibition of proliferation which was used to calculate IC50 values.
In general terms: Alamar Blue is a resazurin reagent that responds to reducing activity.

For assay [2], the system named is A427 cells. The assay is described as follows: Cytotoxicity assay (resazurin) in A427 cells. It is filed as cell-based. Particulars: A427, 72 hr, read-out: Cell Viability IC50 A427. The procedure: as §1
The target in assay [3] is WEE1 kinase enzyme (Homo sapiens (Human), UniProt P30291). Kind of assay: WEE1 IC50 determination, LanthaScreen Terbium Labeled TR-FRET kinase assay. It is filed as biochemical. Particulars: WEE1 enzyme 1 nM, ATP 10 μM, 1 h. The procedure:
IC50 values of compounds against WEE1 kinase enzyme were determined by LanthaScreen™ Terbium Labeled TR-FRET assay. […] After 1 h, […] stop solution containing Terbium labeled antibody (4 nM) (#PV3529, Invitrogen, Life Technologies Grand Island, N.Y.) and EDTA (#E5134, Sigma, St-Louis, Mo.) (20 mM) in TR-FRET dilution buffer (#PV3574, Invitrogen, Life Technologies Grand Island, N.Y.) was added. Readings were taken in a Synergy Neo Plate reader (BioTek, Winooski) at single excitation of 340 nm and Dual emission at 495 nm and 520 nm respectively.
The % activity of test samples was calculated as (Sample−Min)*100/(Max−Min). [Max: DMSO control, complete reaction with enzyme & DMSO and Min: No enzyme & DMSO].
On the technique in general: Time-resolved FRET reads energy transfer from a long-lived donor to a nearby acceptor.

Molecules are shown by their SMILES. Where two headings read alike, the source gives them in different places.

The term IC50 denotes the concentration at which inhibition is half-maximal.

Chain of WEE1 kinase enzyme (P30291 whole entry): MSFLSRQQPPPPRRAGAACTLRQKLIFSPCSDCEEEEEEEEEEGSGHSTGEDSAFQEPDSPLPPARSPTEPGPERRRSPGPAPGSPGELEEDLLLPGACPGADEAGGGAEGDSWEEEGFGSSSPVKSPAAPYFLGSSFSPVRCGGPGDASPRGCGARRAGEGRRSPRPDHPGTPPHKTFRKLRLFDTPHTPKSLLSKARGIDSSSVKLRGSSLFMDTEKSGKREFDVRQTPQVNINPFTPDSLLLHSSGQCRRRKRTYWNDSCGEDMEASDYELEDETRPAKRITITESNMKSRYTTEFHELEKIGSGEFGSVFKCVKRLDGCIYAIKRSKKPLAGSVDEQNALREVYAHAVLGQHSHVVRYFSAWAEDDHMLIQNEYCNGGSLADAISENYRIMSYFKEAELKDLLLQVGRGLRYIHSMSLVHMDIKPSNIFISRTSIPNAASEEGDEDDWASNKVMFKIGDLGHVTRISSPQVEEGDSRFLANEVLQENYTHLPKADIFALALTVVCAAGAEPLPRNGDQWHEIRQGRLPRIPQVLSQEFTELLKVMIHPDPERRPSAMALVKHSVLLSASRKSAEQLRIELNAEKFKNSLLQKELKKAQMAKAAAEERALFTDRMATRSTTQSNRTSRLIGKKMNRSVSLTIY

In the case of `CC(C)n1c(=O)c2cnc(Nc3ccc4c(c3)CNCC4)nc2n1-c1cccc(C(C)(C)O)n1` [Example 1.10], the IC50 in assay [1] was determined as 0.51 µM; in assay [2] (Homo sapiens, A-427, 72 h), 0.34 µM; in assay [3] it was 0.002 µM.
In the case of `C=CCn1c(=O)c2cnc(Nc3ccc4c(c3)CCNC4)nc2n1-c1cccc(C(C)(C)O)n1` [Example 1.8], the concentration for half-maximal inhibition (IC50) turned out to be 0.545 µM in assay [1] and 0.001 µM in assay [3].
For `CCn1c(=O)c2cnc(Nc3ccc4c(c3)CNCC4(C)C)nc2n1-c1cccc(C(C)(C)O)n1` [Example 1.13], the IC50 in assay [1] was 0.895 µM; in assay [2] (Homo sapiens, A-427, 72 h), 1 µM; in assay [3] it was 0.0015 µM.
For the compound `CCn1c(=O)c2cnc(Nc3ccc4c(c3)CNCC4)nc2n1-c1cccc(OC)n1` [Example 1.18], the concentration for half-maximal inhibition (IC50) in assay [2] (Homo sapiens, A-427, 72 h) was 7.06 µM; in assay [3], 0.025 µM.
For `CCn1c(=O)c2cnc(Nc3ccc4c(c3)CNCC43CC3)nc2n1-c1cccc(C(C)(C)O)n1` [Example 1.70], in that order: 0.64 µM and 0.015 µM.
Taken in the same sequence, the figures for `COC(C)(C)c1cc(-n2c3nc(Nc4ccc5c(c4)CCNC5)ncc3c(=O)n2C(C)C)ccn1` [Example 2.293] were > 30 µM and > 3.65 µM.
Taken in the same sequence, the figures for `CC(C)n1c(=O)c2cnc(Nc3ccc4c(c3)CNCC4)nc2n1-c1ccnc(C(C)(C)F)c1` [Example 1.169] were 2.74 µM and 0.016 µM.
Regarding `CCn1c(=O)c2cnc(Nc3ccc4c(c3)CNCC4)nc2n1-c1cccc(NC(C)=O)n1` [Example 1.47], the IC50 in assay [2] (Homo sapiens, A-427, 72 h) worked out at 3.02 µM; in assay [3] it was 0.005 µM.
For the compound `CC(n1c(=O)c2cnc(Nc3ccc4c(c3)CNCC4)nc2n1-c1cccc(C(C)(C)C)n1)C(F)(F)F` (stereo not shown) [Example 1.150], the half-inhibitory concentration (IC50) in assay [2] (Homo sapiens, A-427, 72 h) stood at 3 µM; in assay [3] it was 0.013 µM.
Taken in the same sequence, the figures for `CC(C)n1c(=O)c2cnc(Nc3ccc4c(c3)CCNC4)nc2n1-c1ccnc(N(C)C)c1` [Example 1.172] were 1.35 µM and 0.012 µM.
Consider `C=CCn1c(=O)c2cnc(Nc3ccc4c(c3)CN(C)CC4)nc2n1-c1cccc(C(C)(C)O)n1` [Example 1.9], for which the IC50 in assay [1] came out at 0.52 µM; in assay [3], 0.001 µM.
`CC(C)n1c(=O)c2cnc(Nc3ccc4c(c3)CCNC4)nc2n1-c1ccnc(N(C)S(C)(=O)=O)c1` [Example 1.177]: the half-maximal inhibitory concentration (IC50) in assay [2] (Homo sapiens, A-427, 72 h) amounted to 1.97 µM; in assay [3], 0.012 µM.
As to `CC(C)n1c(=O)c2cnc(Nc3ccc4c(c3)CCNC4)nc2n1-c1cccc(C(C)(C)O)n1` [Example 1.69], the half-inhibitory concentration (IC50) in assay [2] (Homo sapiens, A-427, 72 h) stood at 0.485 µM; in assay [3] it was 0.011 µM.
Turning to `CC(C)(C)c1cc(-n2c3nc(Nc4ccc5c(c4)CNCC5)ncc3c(=O)n2CC(F)(F)F)ccn1` [Example 1.174], the 50% inhibitory concentration (IC50) was found to be 4 µM in assay [2] (Homo sapiens, A-427, 72 h) and 0.108 µM in assay [3].
As to `CC(C)n1c(=O)c2cnc(Nc3ccc4c(c3)CCNC4)nc2n1-c1ccc(N(C)C)c(C(C)(C)C)c1` [Example 1.175], the IC50 in assay [2] (Homo sapiens, A-427, 72 h) is 1.16 µM; in assay [3], 0.156 µM.
As for `CC(C)n1c(=O)c2cnc(Nc3ccc4c(c3)CCNC4(C)C)nc2n1-c1ccnc(C(C)(C)C)c1` [Example 1.176], the IC50 came to 0.595 µM in assay [2] (Homo sapiens, A-427, 72 h) and 0.008 µM in assay [3].
For `CC(C)n1c(=O)c2cnc(Nc3ccc4c(c3)CNCC4(C)C)nc2n1-c1ccnc(C(C)(C)C)c1` [Example 1.162], in that order: 0.385 µM and 0.011 µM.
As to `CC(C)n1c(=O)c2cnc(Nc3ccc4c(c3)CC(N(C)C)C4)nc2n1-c1ccnc(C(C)(C)C)c1` (stereo not shown) [Example 1.164], the half-maximal inhibitory concentration (IC50) in assay [2] (Homo sapiens, A-427, 72 h) was 0.485 µM; in assay [3] it was 0.008 µM.
`CCn1c(=O)c2cnc(Nc3ccc4c(c3)CNC4)nc2n1-c1cccc(C(C)(C)C)n1` [Example 1.142]: the IC50 turned out to be 0.39 µM in assay [2] (Homo sapiens, A-427, 72 h) and 0.004 µM in assay [3].
Taken in the same sequence, the figures for `CC(C)n1c(=O)c2cnc(Nc3ccc4c(c3)CCNC4)nc2n1-c1ccc(F)c(C(C)(C)O)c1` [Example 2.185] were 1.54 µM and 0.034 µM.
For the compound `CC(C)n1c(=O)c2cnc(Nc3ccc4c(c3)CCN(C)C4)nc2n1-c1ccnc(C(C)(C)C)c1` [Example 2.644], the concentration for half-maximal inhibition (IC50) is 2.33 µM in assay [2] (Homo sapiens, A-427, 72 h) and 0.005 µM in assay [3].
For the compound `CCn1c(=O)c2cnc(Nc3ccc4c(c3)CCNC4)nc2n1-c1cccc(OC)n1` [Example 1.23], the IC50 came to 3.21 µM in assay [2] (Homo sapiens, A-427, 72 h) and 0.04 µM in assay [3].
For `CC(C)n1c(=O)c2cnc(Nc3ccc4c(c3)CNCC4)nc2n1-c1ccc(F)cn1` [Example 2.291], in that order: 7.99 µM and 0.046 µM.
On to `C=CCn1c(=O)c2cnc(Nc3ccc4c(c3)CCNC4)nc2n1-c1ccnc(C(C)(C)C)c1` [Example 1.157], for which the IC50 was 0.46 µM in assay [2] (Homo sapiens, A-427, 72 h) and 0.005 µM in assay [3].
For `CC(C)n1c(=O)c2cnc(Nc3ccc4c(c3)CNC4)nc2n1-c1ccnc(C(C)(C)C)c1` [Example 1.165], in that order: 1.57 µM and 0.014 µM.
For the compound `CCn1c(=O)c2cnc(Nc3ccc4c(c3)CNCC4)nc2n1-c1cccc(NC)n1` [Example 1.27], the IC50 in assay [2] (Homo sapiens, A-427, 72 h) was 4.14 µM; in assay [3], 0.01 µM.
Taken in the same sequence, the figures for `CC(C)n1c(=O)c2cnc(Nc3ccc4c(c3)CC(N(C)C)CC4)nc2n1-c1ccnc(C(C)(C)C)c1` (stereo not shown) [Example 1.171] were 0.735 µM and 0.006 µM.
For the compound `CC(C)n1c(=O)c2cnc(Nc3ccc4c(c3)CNCC43CC3)nc2n1-c1ccnc(C(C)(C)C)c1` [Example 1.161], the IC50 in assay [2] (Homo sapiens, A-427, 72 h) worked out at 0.24 µM; in assay [3] it was 0.004 µM.
With `CC(C)n1c(=O)c2cnc(Nc3ccc4c(c3)CNCC4(C)C)nc2n1-c1ccn(C2CC2)n1` [Example 2.646], the IC50 in assay [2] (Homo sapiens, A-427, 72 h) amounted to 4.37 µM; in assay [3] it was 0.015 µM.
For `CC(C)(F)c1cc(-n2c3nc(Nc4ccc5c(c4)CNCC5(C)C)ncc3c(=O)n2C2CC2)ccn1` [Example 2.605], in that order: 5.96 µM and 0.123 µM.
Regarding `CCn1c(=O)c2cnc(Nc3ccc4c(c3)CC(N(C)C)CC4)nc2n1-c1cccc(C(C)(C)O)n1` (stereo not shown) [Example 1.135], the IC50 worked out at 0.44 µM in assay [2] (Homo sapiens, A-427, 72 h) and 0.02 µM in assay [3].
As to `CCn1c(=O)c2cnc(Nc3ccc4c(c3)CN(C(=O)CO)CC4(C)C)nc2n1-c1cccc(C(C)(C)O)n1` [Example 1.14], the figures for the IC50 in assay [1] and in assay [3] were 1.62 µM and 0.001 µM, respectively.
Turning to `CC(C)n1c(=O)c2cnc(Nc3ccc4c(c3)CNCC4)nc2n1-c1ccn(C)n1` [Example 2.292], the IC50 in assay [2] (Homo sapiens, A-427, 72 h) came to 13.3 µM; in assay [3], 0.043 µM.
Consider `CC(C)n1c(=O)c2cnc(Nc3ccc4c(c3)CCNC4)nc2n1-c1cc(C(C)(C)C)ccn1` [Example 2.288], for which the IC50 is 2.58 µM in assay [2] (Homo sapiens, A-427, 72 h) and 0.217 µM in assay [3].
Taken in the same sequence, the figures for `CC(C)n1c(=O)c2cnc(Nc3ccc4c(c3)CNCC4)nc2n1-c1cccc(C(C)(C)F)n1` [Example 1.139] were 0.355 µM and 0.004 µM.
Taken in the same sequence, the figures for `CC(C)n1c(=O)c2cnc(Nc3ccc4c(c3)CCNC4)nc2n1-c1ccc(F)cc1` [Example 1.166] were 4.13 µM and 0.029 µM.
Turning to `CC(C)n1c(=O)c2cnc(Nc3ccc4c(c3)CCNC4(C)C)nc2n1-c1ccnc(C(C)(C)F)c1` [Example 2.187], the IC50 in assay [2] (Homo sapiens, A-427, 72 h) is 0.435 µM; in assay [3], 0.012 µM.
Taken in the same sequence, the figures for `CC(C)n1c(=O)c2cnc(Nc3ccc4c(c3)CNCC4)nc2n1-c1ccnc(C(C)(C)C)c1` [Example 1.137] were 0.415 µM and 0.004 µM.
Regarding `CCn1c(=O)c2cnc(Nc3ccc4c(c3)CN(CCO)CC4)nc2n1-c1cccc(C(C)(C)O)n1` [Example 1.128], the IC50 in assay [2] (Homo sapiens, A-427, 72 h) was 1.55 µM; in assay [3], 0.006 µM.
On to `COCCn1c(=O)c2cnc(Nc3ccc4c(c3)CNCC4)nc2n1-c1cccc(C(C)(C)C)n1` [Example 1.154], for which the IC50 was 2.37 µM in assay [2] (Homo sapiens, A-427, 72 h) and 0.008 µM in assay [3].
Taken in the same sequence, the figures for `COC(=O)N1CCc2cc(Nc3ncc4c(=O)n(C(C)C)n(-c5ccnc(C(C)(C)C)c5)c4n3)ccc2C1` [Example 1.173] were 2.33 µM and 0.343 µM.
For `CC(C)n1c(=O)c2cnc(Nc3ccc4c(c3)CCC(N(C)C)C4)nc2n1-c1ccnc(C(C)(C)C)c1` (stereo not shown) [Example 1.170, 1-(2-tert-butylpyridin-4-yl)-6-{[6-(dimethylamino)-5,6,7,8-tetrahydronaphthalen-2-yl]amino}-2-(propan-2-yl)-1H,2H,3H-pyrazolo[3,4-d]pyrimidin-3-one], in that order: 0.775 µM and 0.012 µM.
Turning to `CC(C)(C)c1cccc(-n2c3nc(Nc4ccc5c(c4)CCNC5)ncc3c(=O)n2C2CC2)n1` [Example 1.147], the half-maximal inhibitory concentration (IC50) stood at 0.37 µM in assay [2] and 0.007 µM in assay [3].

(Values after patent US11299493B2, “Heterocyclic compounds and uses thereof” (NUVATION BIO INC., priority 2017, dated 2022).)
